The results in this text go back to US12139492B2 (Endotarget Inc., priority 2021, dated 2024).

By Dmax is commonly meant the greatest extent of degradation seen. Low values mean shallow degradation, high ones deep degradation. Usually DC50 stands for the midpoint of the concentration-degradation curve. A low value points to a more potent degrader.

Where only a bound is given, the exact number is not on record here.

Holding throughout (assay type): cell-based
In assay [1] the test system is Mino cells. Description: Antiproliferative effect, MTS cell viability assay, Mino cells. Conditions: Homo sapiens, MINO, Mino mantle cell lymphoma cells; read-out: IC50 (anti-proliferation) Mino cells. The gist of the method:
(§1)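 Tested at six concentrations (0 to 10 μM in tenfold steps), 72 h; viability by MTS, A490.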

For assay [2], the target named is BTK (Homo sapiens, UniProt Q06187). Description: BTK degradation, DC50 and Dmax of Table 1 (cell line not given). Details: endogenous in cells. Conditions: for DC50: concentration giving 50% reduction of BTK expression level.
Chain of BTK (Q06187 whole entry): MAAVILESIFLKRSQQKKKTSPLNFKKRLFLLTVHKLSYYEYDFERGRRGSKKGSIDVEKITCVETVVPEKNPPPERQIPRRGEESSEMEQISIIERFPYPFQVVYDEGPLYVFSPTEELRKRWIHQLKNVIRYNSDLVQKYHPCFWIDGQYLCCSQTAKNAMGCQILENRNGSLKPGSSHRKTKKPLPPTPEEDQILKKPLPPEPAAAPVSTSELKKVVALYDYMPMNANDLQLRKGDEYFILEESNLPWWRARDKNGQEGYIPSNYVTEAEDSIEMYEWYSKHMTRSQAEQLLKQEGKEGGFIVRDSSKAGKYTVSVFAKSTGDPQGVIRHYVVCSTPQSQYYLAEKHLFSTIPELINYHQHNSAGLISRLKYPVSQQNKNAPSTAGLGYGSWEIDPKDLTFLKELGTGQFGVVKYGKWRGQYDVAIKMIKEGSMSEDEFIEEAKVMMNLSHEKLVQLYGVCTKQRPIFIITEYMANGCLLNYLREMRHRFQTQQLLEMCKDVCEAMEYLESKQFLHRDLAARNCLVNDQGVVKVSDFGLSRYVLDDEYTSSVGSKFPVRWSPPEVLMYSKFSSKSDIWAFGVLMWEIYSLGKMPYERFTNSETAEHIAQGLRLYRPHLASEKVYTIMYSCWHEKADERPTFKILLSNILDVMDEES
The test system of assay [3] is JeKo-1 cells. In words: Antiproliferative effect, MTS cell viability assay, JeKo-1 cells. The note with it: Homo sapiens; JeKo-1 mantle cell lymphoma cells; read-out: IC50 (anti-proliferation) JeKO-1 cells. A digest of the protocol:
as §1
A general note: Tetrazolium assays rely on reduction of a dye to a coloured formazan, in cell work by metabolically active cells.

Consider `Nc1ncnc2c1c(-c1ccc(Oc3ccccc3)cc1)nn2[C@@H]1CCCN(C2CCN(C(=O)N3CCN(c4ccc5c(c4)CN(C4CCC(=O)NC4=O)C5=O)CC3)CC2)C1` (stereo partly drawn) [Compound 160, 3-(5-(4-((R)-3-(4-amino-3-(4-phenoxyphenyl)-1H-pyrazolo[3,4-d]pyrimidin-1-yl)-[1,4′-bipiperidine]-1′-carbonyl)piperazin-1-yl)-1-oxoisoindolin-2-yl)piperidine-2,6-dione], for which the IC50 in assay [1] was 1000 to 10000 nM; in assay [3], greater than 10000 nM. For the same molecule, in assay [2], the Dmax was greater than 50%. Besides, the DC50 in assay [2] is greater than 50 nM.

For `Nc1ncnc2c1c(-c1ccc(Oc3ccccc3)cc1)nn2C1CCN(C(=O)N2CCC(N3CCC(c4ccc5c(c4)C(=O)N(C4CCC(=O)NC4=O)C5=O)CC3)CC2)CC1` (stereo not shown) [Compound 83, 5-(1′-(4-(4-amino-3-(4-phenoxyphenyl)-1H-pyrazolo[3,4-d]pyrimidin-1-yl)piperidine-1-carbonyl)-[1,4′-bipiperidin]-4-yl)-2-(2,6-dioxopiperidin-3-yl)isoindoline-1,3-dione], the IC50 in assay [1] was greater than 10000 nM. In assay [2], this molecule returned a Dmax greater than 75% and a 50% degradation concentration (DC50) greater than 50 nM. Further, in assay [3], the IC50 is greater than 10000 nM.

Consider `Nc1ncnc2c1c(-c1ccc(Oc3ccccc3)cc1)nn2C1CCN(C(=O)N2CCN(CCN3CCC(c4ccc5c(c4)CN(C4CCC(=O)NC4=O)C5=O)CC3)CC2)CC1` (stereo not shown) [Compound 100, 3-(5-(1-(2-(4-(4-(4-amino-3-(4-phenoxyphenyl)-1H-pyrazolo[3,4-d]pyrimidin-1-yl)piperidine-1-carbonyl)piperazin-1-yl)ethyl)piperidin-4-yl)-1-oxoisoindolin-2-yl)piperidine-2,6-dione], for which the IC50 in assay [1] fell in the range of 1000 to 10000 nM. Moreover, in assay [2], the Dmax was greater than 90% and the DC50 lay in the range of 10 to 50 nM. The IC50 in assay [3] lay in the range of 1000 to 10000 nM.

`Nc1ncnc2c1c(-c1ccc(Oc3ccccc3)cc1)nn2[C@@H]1CCCN(C(=O)N2CCC(c3ccc4c(c3)CN(C3CCC(=O)NC3=O)C4=O)CC2)C1` (stereo partly drawn) [Compound 48, 3-(5-(1-((R)-3-(4-amino-3-(4-phenoxyphenyl)-1H-pyrazolo[3,4-d]pyrimidin-1-yl)piperidine-1-carbonyl)piperidin-4-yl)-1-oxoisoindolin-2-yl)piperidine-2,6-dione]: the IC50 in assay [1] is greater than 10000 nM. For the same molecule, in assay [2], the Dmax is greater than 50% and the DC50 is greater than 50 nM. The IC50 in assay [3] is greater than 10000 nM.

As for `Nc1ncnc2c1c(-c1ccc(Oc3ccccc3)cc1)nn2[C@@H]1CCCN(C(=O)N2CCN(c3ccc4c(c3)CN(C3CCC(=O)NC3=O)C4=O)CC2)C1` (stereo partly drawn) [Compound 46, 3-(5-(4-((R)-3-(4-amino-3-(4-phenoxyphenyl)-1H-pyrazolo[3,4-d]pyrimidin-1-yl)piperidine-1-carbonyl)piperazin-1-yl)-1-oxoisoindolin-2-yl)piperidine-2,6-dione], the IC50 in assay [1] was greater than 10000 nM. Further, in assay [2], the Dmax was greater than 50% and the DC50 was greater than 50 nM. Besides, the IC50 in assay [3] is greater than 10000 nM.

With `Nc1ncnc2c1c(-c1ccc(Oc3ccccc3)cc1)nn2C1CCCN(CCOCCOCCC2CCN(c3ccc4c(c3)C(=O)N(C3CCC(=O)NC3=O)C4=O)CC2)C1` (stereo not shown) [Compound 21, 5-(4-(2-(2-(2-(3-(4-amino-3-(4-phenoxyphenyl)-1H-pyrazolo[3,4-d]pyrimidin-1-yl)piperidin-1-yl)ethoxy)ethoxy)ethyl)piperidin-1-yl)-2-(2,6-dioxopiperidin-3-yl)isoindoline-1,3-dione], the IC50 in assay [1] lay within 1000 to 10000 nM. For the same molecule, in assay [2], the Dmax was greater than 90% and the DC50 is less than 10 nM. Besides, in assay [3], the IC50 lay within 1000 to 10000 nM.

In the case of `Nc1ncnc2c1c(-c1ccc(Oc3ccccc3)cc1)nn2C1CCN(CCOCCN2CCC(c3ccc4c(c3)C(=O)N(C3CCC(=O)NC3=O)C4=O)CC2)CC1` (stereo not shown) [Compound 11, 5-(1-(2-(2-(4-(4-amino-3-(4-phenoxyphenyl)-1H-pyrazolo[3,4-d]pyrimidin-1-yl)piperidin-1-yl)ethoxy)ethyl)piperidin-4-yl)-2-(2,6-dioxopiperidin-3-yl)isoindoline-1,3-dione], the IC50 in assay [1] and in assay [3] was 1000 to 10000 nM in each case. This molecule also had a Dmax in assay [2] greater than 90%. Moreover, the DC50 in assay [2] is 10 to 50 nM.

For `Nc1ncnc2c1c(-c1ccc(Oc3ccccc3)cc1)nn2[C@@H]1CCCN(C(=O)N2CCC(CN3CCN(c4ccc5c(c4)CN(C4CCC(=O)NC4=O)C5=O)CC3)CC2)C1` (stereo partly drawn) [Compound 56, 3-(5-(4-((1-((R)-3-(4-amino-3-(4-phenoxyphenyl)-1H-pyrazolo[3,4-d]pyrimidin-1-yl)piperidine-1-carbonyl)piperidin-4-yl)methyl)piperazin-1-yl)-1-oxoisoindolin-2-yl)piperidine-2,6-dione], the IC50 in assay [1] and in assay [3] was less than 1000 nM in each case. This molecule also had a Dmax in assay [2] greater than 90%. The 50% degradation concentration (DC50) in assay [2] was less than 10 nM.

`Nc1ncnc2c1c(-c1ccc(Oc3ccccc3)cc1)nn2C1CCCN(CCOCCOCCN2CCC(c3ccc4c(c3)CN(C3CCC(=O)NC3=O)C4=O)CC2)C1` (stereo not shown) [Compound 14, 3-(5-(1-(2-(2-(2-(3-(4-amino-3-(4-phenoxyphenyl)-1H-pyrazolo[3,4-d]pyrimidin-1-yl)piperidin-1-yl)ethoxy)ethoxy)ethyl)piperidin-4-yl)-1-oxoisoindolin-2-yl)piperidine-2,6-dione]: the IC50 in assay [1] and in assay [3] was 1000 to 10000 nM in each case. In assay [2], the Dmax is greater than 90%. Also, in assay [2], the DC50 was in the range of 10 to 50 nM.

With `Nc1ncnc2c1c(-c1ccc(Oc3ccccc3)cc1)nn2[C@@H]1CCCN(C(=O)N2CCC(CCCN3CCC(c4ccc5c(c4)C(=O)N(C4CCC(=O)NC4=O)C5=O)CC3)CC2)C1` (stereo partly drawn) [Compound 115, 5-(1-(3-(1-((R)-3-(4-amino-3-(4-phenoxyphenyl)-1H-pyrazolo[3,4-d]pyrimidin-1-yl)piperidine-1-carbonyl)piperidin-4-yl)propyl)piperidin-4-yl)-2-(2,6-dioxopiperidin-3-yl)isoindoline-1,3-dione], in assay [1], the IC50 lay within 1000 to 10000 nM. In assay [2], the Dmax was greater than 75% and the DC50 was greater than 50 nM. For the same molecule, in assay [3], the IC50 was greater than 10000 nM.

For the molecule `Nc1ncnc2c1c(-c1ccc(Oc3ccccc3)cc1)nn2[C@@H]1CCCN(CC2CCN(CCCN3CCN(c4ccc5c(c4)CN(C4CCC(=O)NC4=O)C5=O)CC3)CC2)C1` (stereo partly drawn) [Compound 138, 3-(5-(4-(3-(4-(((R)-3-(4-amino-3-(4-phenoxyphenyl)-1H-pyrazolo[3,4-d]pyrimidin-1-yl)piperidin-1-yl)methyl)piperidin-1-yl)propyl)piperazin-1-yl)-1-oxoisoindolin-2-yl)piperidine-2,6-dione], the results for the IC50 in assay [1] and in assay [3] were 1000 to 10000 nM and greater than 10000 nM, respectively. For the same molecule, the Dmax in assay [2] is greater than 75%. This molecule gave a DC50 in assay [2] of 10 to 50 nM.

Consider `Nc1ncnc2c1c(-c1ccc(Oc3ccccc3)cc1)nn2[C@@H]1CCCN(C2CCN(CCC3CCN(c4ccc5c(c4)C(=O)N(C4CCC(=O)NC4=O)C5=O)CC3)CC2)C1` (stereo partly drawn) [Compound 145, 5-(4-(2-((R)-3-(4-amino-3-(4-phenoxyphenyl)-1H-pyrazolo[3,4-d]pyrimidin-1-yl)-[1,4′-bipiperidin]-1′-yl)ethyl)piperidin-1-yl)-2-(2,6-dioxopiperidin-3-yl)isoindoline-1,3-dione], for which the IC50 in assay [1] is greater than 10000 nM. In assay [2], the Dmax was greater than 75% and the DC50 was greater than 50 nM. Moreover, the IC50 in assay [3] was greater than 10000 nM.

Turning to `Nc1ncnc2c1c(-c1ccc(Oc3ccccc3)cc1)nn2[C@@H]1CCCN(C(=O)N2CCN(CCN3CCC(c4ccc5c(c4)C(=O)N(C4CCC(=O)NC4=O)C5=O)CC3)CC2)C1` (stereo partly drawn) [Compound 69, 5-(1-(2-(4-((R)-3-(4-amino-3-(4-phenoxyphenyl)-1H-pyrazolo[3,4-d]pyrimidin-1-yl)piperidine-1-carbonyl)piperazin-1-yl)ethyl)piperidin-4-yl)-2-(2,6-dioxopiperidin-3-yl)isoindoline-1,3-dione], the IC50 in assay [1] was 1000 to 10000 nM. In assay [2], this molecule displayed a Dmax greater than 90% and a DC50 of less than 10 nM. In addition, in assay [3], the IC50 is 1000 to 10000 nM.

As for `Nc1ncnc2c1c(-c1ccc(Oc3ccccc3)cc1)nn2[C@@H]1CCCN(C2CCN(C(=O)N3CCC(CCCN4CCN(c5ccc6c(c5)CN(C5CCC(=O)NC5=O)C6=O)CC4)CC3)CC2)C1` (stereo partly drawn) [Compound 194, 3-(5-(4-(3-(1-((R)-3-(4-amino-3-(4-phenoxyphenyl)-1H-pyrazolo[3,4-d]pyrimidin-1-yl)-[1,4′-bipiperidine]-1′-carbonyl)piperidin-4-yl)propyl)piperazin-1-yl)-1-oxoisoindolin-2-yl)piperidine-2,6-dione], the IC50 in assay [1] fell in the range of 1000 to 10000 nM. In addition, in assay [2], the Dmax is greater than 75% and the DC50 is 10 to 50 nM. In assay [3], the IC50 is 1000 to 10000 nM.

`Nc1ncnc2c1c(-c1ccc(Oc3ccccc3)cc1)nn2[C@@H]1CCCN(CC2CCN(C(=O)N3CCC(CCN4CCN(c5ccc6c(c5)CN(C5CCC(=O)NC5=O)C6=O)CC4)CC3)CC2)C1` (stereo partly drawn) [Compound 34, 3-(5-(4-(2-(1-(4-(((R)-3-(4-amino-3-(4-phenoxyphenyl)-1H-pyrazolo[3,4-d]pyrimidin-1-yl)piperidin-1-yl)methyl)piperidine-1-carbonyl)piperidin-4-yl)ethyl)piperazin-1-yl)-1-oxoisoindolin-2-yl)piperidine-2,6-dione]: the IC50 in assay [1] was 1000 to 10000 nM. For the same molecule, in assay [2], the Dmax is greater than 90% and the DC50 was greater than 50 nM. Besides, in assay [3], the IC50 lay within 1000 to 10000 nM.

In the case of `Nc1ncnc2c1c(-c1ccc(Oc3ccccc3)cc1)nn2[C@@H]1CCCN(C2CCN(C(=O)N3CCN(CCN4CCC(c5ccc6c(c5)CN(C5CCC(=O)NC5=O)C6=O)CC4)CC3)CC2)C1` (stereo partly drawn) [Compound 180, 3-(5-(1-(2-(4-((R)-3-(4-amino-3-(4-phenoxyphenyl)-1H-pyrazolo[3,4-d]pyrimidin-1-yl)-[1,4′-bipiperidine]-1′-carbonyl)piperazin-1-yl)ethyl)piperidin-4-yl)-1-oxoisoindolin-2-yl)piperidine-2,6-dione], the IC50 in assay [1] was 1000 to 10000 nM; in assay [3] it was greater than 10000 nM. The molecule further gave a Dmax in assay [2] greater than 75%. The DC50 in assay [2] was 10 to 50 nM.
